# Species: Rattus norvegicus
# Experiment: Open TG-GATES - Regimen: Single
# Assay type: toxicity, organism-based, Sprague-Dawley
# Parameters: regimen Single, gender Male, age 6 weeks
# Details: in vivo, po, route gavage; for Bas / Eos / Fbg / Hb / Ht / Lym / MCHC / Mono / Plat / RBC / Ret / WBC / MCH / Neu / PT: tissue Blood; for KIDNEY_L / KIDNEY_R / KIDNEY_TOTAL: tissue Kidney; for LIVER: tissue Liver
# [1] = 40 mg/kg, 24 h, tissue Plasma, dose level Low
# [2] = 120 mg/kg, 3 h, dose level Middle
# [3] = 120 mg/kg, 3 h, tissue Plasma, dose level Middle
# [4] = 120 mg/kg, 6 h, dose level Middle
# [5] = 120 mg/kg, 6 h, tissue Plasma, dose level Middle
# [6] = 120 mg/kg, 9 h, dose level Middle
# [7] = 120 mg/kg, 9 h, tissue Plasma, dose level Middle
# [8] = 120 mg/kg, 24 h, dose level Middle
# [9] = 120 mg/kg, 24 h, tissue Plasma, dose level Middle
# [10] = 400 mg/kg, 3 h, dose level High
# [11] = 400 mg/kg, 3 h, tissue Plasma, dose level High
# [12] = 400 mg/kg, 6 h, dose level High
# [13] = 400 mg/kg, 6 h, tissue Plasma, dose level High
# [14] = 400 mg/kg, 9 h, dose level High
# [15] = 400 mg/kg, 9 h, tissue Plasma, dose level High
# [16] = 400 mg/kg, 24 h, dose level High
# [17] = 400 mg/kg, 24 h, tissue Plasma, dose level High
smiles,measurement,setting,value
CCC(C)(C)C(=O)O[C@H]1C[C@@H](C)C=C2C=C[C@H](C)[C@H](CC[C@@H]3C[C@@H](O)CC(=O)O3)[C@H]21 [SIMVASTATIN],TC,[1],80.8 mg/dL
same,TG,[1],87.4 mg/dL
same,TP,[1],5.4 g/dL
same,gamma-GTP,[1],1.8 IU/L
same,TERMINAL_BW,[2],200.4 g
same,Bas,[2],0%
same,Eos,[2],1%
same,Fbg,[2],194.4 mg/dL
same,Hb,[2],12.5 g/dL
same,Ht,[2],37.9%
same,Lym,[2],81.8%
same,MCHC,[2],32.9%
same,Mono,[2],6.4%
same,Plat,[2],111.3 x10_4/uL
same,RBC,[2],573.6 x10_4/ul
same,Ret,[2],9.1%
same,WBC,[2],131.2 x10_2/uL
same,KIDNEY_L,[2],0.9 g
same,KIDNEY_R,[2],1 g
same,KIDNEY_TOTAL,[2],1.9 g
same,LIVER,[2],9.6 g
same,ALP,[3],1022 IU/L
same,ALT,[3],34.2 IU/L
same,AST,[3],66.6 IU/L
same,BUN,[3],11.6 mg/dL
same,CRE,[3],0.5 mg/dL
same,DBIL,[3],0.032 mg/dL
same,IP,[3],8.9 mg/dL
same,K,[3],4.7 meq/L
same,LDH,[3],117.2 IU/L
same,Na,[3],137.8 meq/L
same,PL,[3],134.8 mg/dL
same,RALB,[3],3.5 g/dL
same,TBIL,[3],0.3 mg/dL
same,TC,[3],74 mg/dL
same,TG,[3],56 mg/dL
same,TP,[3],5.5 g/dL
same,gamma-GTP,[3],1.6 IU/L
same,TERMINAL_BW,[4],200.1 g
same,Bas,[4],0%
same,Eos,[4],0.6%
same,Fbg,[4],203.2 mg/dL
same,Hb,[4],12.9 g/dL
same,Ht,[4],39.4%
same,Lym,[4],77.6%
same,MCH,[4],21.6 pg
same,MCHC,[4],32.9%
same,Mono,[4],6%
same,Neu,[4],15.8%
same,PT,[4],11.9 s
same,Plat,[4],114.7 x10_4/uL
same,RBC,[4],600.4 x10_4/ul
same,Ret,[4],8.4%
same,WBC,[4],123.6 x10_2/uL
same,KIDNEY_L,[4],0.9 g
same,KIDNEY_R,[4],0.9 g
same,KIDNEY_TOTAL,[4],1.8 g
same,LIVER,[4],8.9 g
same,ALP,[5],912.2 IU/L
same,ALT,[5],28.6 IU/L
same,AST,[5],57.2 IU/L
same,CRE,[5],0.5 mg/dL
same,DBIL,[5],0.086 mg/dL
same,IP,[5],9.6 mg/dL
same,K,[5],4.5 meq/L
same,LDH,[5],94 IU/L
same,Na,[5],137.6 meq/L
same,PL,[5],119 mg/dL
same,RALB,[5],3.5 g/dL
same,TBIL,[5],0.4 mg/dL
same,TC,[5],66.4 mg/dL
same,TG,[5],44 mg/dL
same,TP,[5],5.4 g/dL
same,gamma-GTP,[5],1.4 IU/L
same,TERMINAL_BW,[6],199.1 g
same,Bas,[6],0%
same,Eos,[6],1%
same,Fbg,[6],217.2 mg/dL
same,Hb,[6],12.9 g/dL
same,Ht,[6],39.5%
same,Lym,[6],77%
same,MCH,[6],21.6 pg
same,MCHC,[6],32.6%
same,Mono,[6],6%
same,Neu,[6],16.6%
same,PT,[6],11.8 s
same,Plat,[6],106.6 x10_4/uL
same,RBC,[6],598.2 x10_4/ul
same,Ret,[6],9%
same,WBC,[6],82.6 x10_2/uL
same,KIDNEY_L,[6],0.9 g
same,KIDNEY_R,[6],0.9 g
same,KIDNEY_TOTAL,[6],1.8 g
same,LIVER,[6],8.3 g
same,ALP,[7],788.6 IU/L
same,ALT,[7],30.8 IU/L
same,AST,[7],57.4 IU/L
same,CRE,[7],0.5 mg/dL
same,DBIL,[7],0.026 mg/dL
same,K,[7],4.7 meq/L
same,LDH,[7],88.2 IU/L
same,Na,[7],137.6 meq/L
same,PL,[7],119.4 mg/dL
same,RALB,[7],3.7 g/dL
same,TBIL,[7],0.3 mg/dL
same,TC,[7],70.6 mg/dL
same,TG,[7],29.6 mg/dL
same,TP,[7],5.4 g/dL
same,gamma-GTP,[7],1 IU/L
same,TERMINAL_BW,[8],207.4 g
same,Bas,[8],0%
same,Eos,[8],1%
same,Fbg,[8],209.2 mg/dL
same,Hb,[8],12.8 g/dL
same,Ht,[8],39.1%
same,Lym,[8],79.2%
same,MCHC,[8],32.8%
same,Mono,[8],6.2%
same,Neu,[8],14%
same,Plat,[8],123 x10_4/uL
same,RBC,[8],586 x10_4/ul
same,Ret,[8],8.3%
same,WBC,[8],87 x10_2/uL
same,KIDNEY_L,[8],1 g
same,KIDNEY_R,[8],1 g
same,KIDNEY_TOTAL,[8],2 g
same,ALP,[9],811 IU/L
same,ALT,[9],44 IU/L
same,AST,[9],67.8 IU/L
same,BUN,[9],18 mg/dL
same,CRE,[9],0.5 mg/dL
same,DBIL,[9],0.044 mg/dL
same,IP,[9],7.5 mg/dL
same,K,[9],4.7 meq/L
same,LDH,[9],127.8 IU/L
same,Na,[9],139.6 meq/L
same,PL,[9],129.4 mg/dL
same,RALB,[9],3.9 g/dL
same,TBIL,[9],0.4 mg/dL
same,TC,[9],69.4 mg/dL
same,TP,[9],5.5 g/dL
same,gamma-GTP,[9],2.4 IU/L
same,TERMINAL_BW,[10],201.6 g
same,Bas,[10],0%
same,Eos,[10],0.8%
same,Fbg,[10],211.2 mg/dL
same,Hb,[10],12.2 g/dL
same,Ht,[10],37.3%
same,Lym,[10],80.4%
same,MCH,[10],21.5 pg
same,MCHC,[10],32.8%
same,Mono,[10],8.4%
same,Neu,[10],10.8%
same,PT,[10],11.3 s
same,Plat,[10],110.1 x10_4/uL
same,RBC,[10],569 x10_4/ul
same,Ret,[10],10.9%
same,WBC,[10],116.1 x10_2/uL
same,KIDNEY_L,[10],1 g
same,KIDNEY_R,[10],1 g
same,KIDNEY_TOTAL,[10],2 g
same,LIVER,[10],9.3 g
same,ALP,[11],914.4 IU/L
same,ALT,[11],30.8 IU/L
same,AST,[11],61.6 IU/L
same,BUN,[11],11.8 mg/dL
same,CRE,[11],0.5 mg/dL
same,DBIL,[11],0.062 mg/dL
same,IP,[11],8.3 mg/dL
same,K,[11],4.7 meq/L
same,LDH,[11],107.8 IU/L
same,Na,[11],136.8 meq/L
same,PL,[11],131.4 mg/dL
same,RALB,[11],3.6 g/dL
same,TBIL,[11],0.3 mg/dL
same,TC,[11],74.2 mg/dL
same,TG,[11],37 mg/dL
same,TP,[11],5.6 g/dL
same,gamma-GTP,[11],1.2 IU/L
same,TERMINAL_BW,[12],205 g
same,Bas,[12],0%
same,Eos,[12],1%
same,Fbg,[12],209.4 mg/dL
same,Hb,[12],12.5 g/dL
same,Ht,[12],38.1%
same,Lym,[12],80.8%
same,MCH,[12],21.6 pg
same,MCHC,[12],32.7%
same,Mono,[12],4.2%
same,Neu,[12],14.6%
same,PT,[12],12.1 s
same,Plat,[12],109.4 x10_4/uL
same,RBC,[12],578.2 x10_4/ul
same,Ret,[12],11%
same,KIDNEY_L,[12],1 g
same,KIDNEY_R,[12],1 g
same,KIDNEY_TOTAL,[12],1.9 g
same,LIVER,[12],8.8 g
same,ALP,[13],979 IU/L
same,ALT,[13],29.4 IU/L
same,AST,[13],60.2 IU/L
same,BUN,[13],9.8 mg/dL
same,CRE,[13],0.5 mg/dL
same,DBIL,[13],0.078 mg/dL
same,IP,[13],9.6 mg/dL
same,K,[13],4.9 meq/L
same,LDH,[13],86 IU/L
same,Na,[13],137.2 meq/L
same,PL,[13],108 mg/dL
same,RALB,[13],3.4 g/dL
same,TBIL,[13],0.4 mg/dL
same,TC,[13],59 mg/dL
same,TG,[13],41.2 mg/dL
same,TP,[13],5.5 g/dL
same,gamma-GTP,[13],1.4 IU/L
same,TERMINAL_BW,[14],198.2 g
same,Bas,[14],0%
same,Eos,[14],0.6%
same,Fbg,[14],204.6 mg/dL
same,Hb,[14],12.5 g/dL
same,Ht,[14],37.7%
same,Lym,[14],80.8%
same,MCHC,[14],33.1%
same,Mono,[14],3.2%
same,Neu,[14],15.2%
same,PT,[14],12.6 s
same,Plat,[14],110.7 x10_4/uL
same,RBC,[14],576.4 x10_4/ul
same,Ret,[14],9.6%
same,WBC,[14],131.2 x10_2/uL
same,KIDNEY_L,[14],0.9 g
same,KIDNEY_R,[14],0.9 g
same,KIDNEY_TOTAL,[14],1.9 g
same,LIVER,[14],7.8 g
same,ALP,[15],778 IU/L
same,ALT,[15],30.2 IU/L
same,AST,[15],61.2 IU/L
same,BUN,[15],10.2 mg/dL
same,CRE,[15],0.6 mg/dL
same,DBIL,[15],0.066 mg/dL
same,GLC,[15],209 mg/dL
same,K,[15],5.2 meq/L
same,LDH,[15],86 IU/L
same,Na,[15],137.4 meq/L
same,PL,[15],100 mg/dL
same,RALB,[15],3.5 g/dL
same,TBIL,[15],0.3 mg/dL
same,TC,[15],56.8 mg/dL
same,TG,[15],24 mg/dL
same,TP,[15],5.1 g/dL
same,gamma-GTP,[15],1.2 IU/L
same,TERMINAL_BW,[16],201.5 g
same,Bas,[16],0%
same,Eos,[16],0.8%
same,Fbg,[16],218.6 mg/dL
same,Hb,[16],13.9 g/dL
same,Ht,[16],42.3%
same,Lym,[16],80.6%
same,MCHC,[16],32.8%
same,Mono,[16],4.6%
same,Neu,[16],14.4%
same,PT,[16],11.3 s
same,Plat,[16],125.3 x10_4/uL
same,RBC,[16],647.8 x10_4/ul
same,Ret,[16],7.9%
same,WBC,[16],86.8 x10_2/uL
same,KIDNEY_L,[16],1 g
same,KIDNEY_R,[16],1 g
same,KIDNEY_TOTAL,[16],1.9 g
same,LIVER,[16],9.9 g
same,ALP,[17],760.8 IU/L
same,ALT,[17],99 IU/L
same,AST,[17],81.6 IU/L
same,BUN,[17],15.2 mg/dL
same,CRE,[17],0.6 mg/dL
same,DBIL,[17],0.07 mg/dL
same,IP,[17],7.1 mg/dL
same,K,[17],5.2 meq/L
same,LDH,[17],117.6 IU/L
same,Na,[17],137.4 meq/L
same,PL,[17],93.6 mg/dL
same,RALB,[17],3.8 g/dL
same,TBIL,[17],0.4 mg/dL
same,TC,[17],53.6 mg/dL
same,TG,[17],38.4 mg/dL
same,TP,[17],5.4 g/dL
same,gamma-GTP,[17],1.4 IU/L
